Values joined by “and” are separate entries in the source; they are usually repeats but may differ in a detail not shown here. Identical values can stand only once. Toxic doses and inconclusive results are not listed.
System: P388 leukemia ip, CD2F1 mice, survival T/C
Test: NCI In Vivo Anticancer Drug Screen. Data for tumor model P388 Leukemia (intraperitoneal) in CD2F1 (CDF1) mice
Details: endpoint: median survival time, higher = longer survival
In short: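 Mice carrying the transplanted tumor received test compound or vehicle. Survival was recorded in each group, and the value is the treated-group measurement divided by that of the vehicle-treated control group.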

[1] = dose: 50.0 mg/kg/injection, schedule: Q01DX005 (ip), vehicle: saline with Tween-80
[2] = dose: 100.0 mg/kg/injection, schedule: Q01DX005 (ip), vehicle: saline with Tween-80
[3] = dose: 200.0 mg/kg/injection, schedule: Q01DX005 (ip), vehicle: saline with Tween-80
[4] = dose: 100.0 mg/kg/injection, schedule: Q01DX009 (ip), vehicle: saline with Tween-80
[5] = dose: 200.0 mg/kg/injection, schedule: Q01DX009 (ip), vehicle: saline with Tween-80
[6] = dose: 12.5 mg/kg/injection, schedule: Q01DX009 (ip), vehicle: saline with Tween-80
[7] = dose: 25.0 mg/kg/injection, schedule: Q01DX009 (ip), vehicle: saline with Tween-80
[8] = dose: 50.0 mg/kg/injection, schedule: Q01DX009 (ip), vehicle: saline with Tween-80
[9] = dose: 100.0 mg/kg/injection, schedule: Q01DX009 (ip), vehicle: saline
[10] = dose: 100.0 mg/kg/injection, schedule: Q04DX003 (ip), vehicle: saline
[11] = dose: 50.0 mg/kg/injection, schedule: Q01DX009 (ip), vehicle: saline
[12] = dose: 100.0 mg/kg/injection, schedule: Q01DX001 (ip), vehicle: Klucel (hydroxypropylcellulose) (HPC)
[13] = dose: 200.0 mg/kg/injection, schedule: Q01DX001 (ip), vehicle: Klucel (hydroxypropylcellulose) (HPC)
[14] = dose: 12.5 mg/kg/injection, schedule: Q01DX009 (ip), vehicle: saline
[15] = dose: 25.0 mg/kg/injection, schedule: Q01DX009 (ip), vehicle: saline
[16] = dose: 50.0 mg/kg/injection, schedule: Q01DX005 (ip), vehicle: Klucel (hydroxypropylcellulose) (HPC)
[17] = dose: 100.0 mg/kg/injection, schedule: Q01DX005 (ip), vehicle: Klucel (hydroxypropylcellulose) (HPC)
[18] = dose: 200.0 mg/kg/injection, schedule: Q01DX005 (ip), vehicle: Klucel (hydroxypropylcellulose) (HPC)
[19] = dose: 25.0 mg/kg/injection, schedule: Q04DX003 (ip), vehicle: saline
[20] = dose: 50.0 mg/kg/injection, schedule: Q04DX003 (ip), vehicle: saline

With `CC1(C)CC(O)C2OC2C1` (stereo not given) the T/C [1] was 101 % of control, the T/C [2] was 108 % of control and the T/C [3] was 106 % of control.
For `O=C(O)C(F)(F)F`, the T/C [4] was 90 % of control, the T/C [5] was 95 % of control and the T/C (dose: 400.0 mg/kg/injection, schedule: Q01DX009 (ip), vehicle: saline with Tween-80) was 90 % of control.
For `CCCCCCCCOC(=O)c1ccc(O)cc1`, the T/C [6] was 99 % of control, the T/C [7] was 100 % of control and the T/C [8] was 99 % of control and 96 % of control. The T/C [4] was 92 % of control.
`O=C(O)C(=O)O.OO.OO.OO.[Nb]` was tested, and the T/C [9] was 123 % of control and the T/C [10] was 100 % of control.
In the case of `O=S1(=O)CCC2=CC(C(F)(F)F)=CC(C(F)(F)F)=CN21`, the T/C (dose: 12.5 mg/kg/injection, schedule: Q01DX005 (ip), vehicle: saline with Tween-80) is reported as 109 % of control, the T/C (dose: 25.0 mg/kg/injection, schedule: Q01DX005 (ip), vehicle: saline with Tween-80) is reported as 122 % of control and the T/C [1] is reported as 107 % of control.
In the case of `c1ccc(/C(=N\Nc2ccccn2)c2ccccn2)cc1`, the T/C [1] is reported as 112 % of control, the T/C [2] is reported as 117 % of control and the T/C [3] is reported as 108 % of control.
In the case of `CC(=O)c1ccc2c(=O)c(C(=O)O)c[nH]c2c1`, the T/C [6] is reported as 87 % of control, the T/C [7] is reported as 91 % of control and the T/C [11] is reported as 108 % of control. For the same molecule, the T/C [9] was 98 % of control and the T/C (dose: 200.0 mg/kg/injection, schedule: Q01DX009 (ip), vehicle: saline) was 104 % of control.
In the case of `CC(C)(C)c1ccc2c(c1)C1=NC2=NC2=NC(=NC3=NC(=NC4=NC(=N1)c1ccc(C(C)(C)C)cc14)c1ccc(C(C)(C)C)cc13)c1ccc(C(C)(C)C)cc12`, the T/C [12] is reported as 98 % of control, the T/C [13] is reported as 95 % of control and the T/C (dose: 400.0 mg/kg/injection, schedule: Q01DX001 (ip), vehicle: Klucel (hydroxypropylcellulose) (HPC)) is reported as 91 % of control.
For `CO[C@H](/C(C)=C/C=C/C(C)=C/c1coc(C)n1)[C@H](C)[C@H]1C[C@@H](O)[C@@]2(C)O[C@H]2/C=C/[C@@H](C)[C@@H]2C[C@@H](CC(=O)O2)C[C@H]2O[C@@H]2C(=O)O1`, the T/C (dose: 0.1 mg/kg/injection, schedule: Q01DX005 (ip), vehicle: Klucel (hydroxypropylcellulose) (HPC)) was 150 % of control, the T/C (dose: 0.12 mg/kg/injection, schedule: Q01DX005 (ip), vehicle: Klucel (hydroxypropylcellulose) (HPC)) was 150 % of control and the T/C (dose: 0.14 mg/kg/injection, schedule: Q01DX005 (ip), vehicle: Klucel (hydroxypropylcellulose) (HPC)) was 152 % of control and 160 % of control. For the same molecule, the T/C (dose: 0.18 mg/kg/injection, schedule: Q01DX005 (ip), vehicle: Klucel (hydroxypropylcellulose) (HPC)) was 160 % of control, the T/C (dose: 0.24 mg/kg/injection, schedule: Q01DX005 (ip), vehicle: Klucel (hydroxypropylcellulose) (HPC)) was 166 % of control and the T/C (dose: 0.45 mg/kg/injection, schedule: Q01DX005 (ip), vehicle: Klucel (hydroxypropylcellulose) (HPC)) was 171 % of control and 184 % of control and 195 % of control. For the same molecule, the T/C (dose: 0.67 mg/kg/injection, schedule: Q01DX005 (ip), vehicle: Klucel (hydroxypropylcellulose) (HPC)) was 181 % of control and 191 % of control, the T/C (dose: 10.0 micrograms/kg/injection, schedule: Q01DX005 (ip), vehicle: Klucel (hydroxypropylcellulose) (HPC)) was 104 % of control and the T/C (dose: 20.0 micrograms/kg/injection, schedule: Q01DX005 (ip), vehicle: Klucel (hydroxypropylcellulose) (HPC)) was 109 % of control and 123 % of control. For the same molecule, the T/C (dose: 80.0 micrograms/kg/injection, schedule: Q01DX005 (ip), vehicle: Klucel (hydroxypropylcellulose) (HPC)) was 163 % of control.
In the case of `CCCCCCCCCCCCCCCC[N+](C)(C)CCN`, the T/C [14] is reported as 93 % of control, the T/C [15] is reported as 99 % of control and the T/C [11] is reported as 106 % of control.
For `COc1ccc(S(=O)(=O)N/N=C\c2cccc([N+](=O)[O-])c2O)cc1OC`, the T/C [1] was 102 % of control, the T/C [2] was 99 % of control and the T/C [3] was 101 % of control.
`Clc1ccc2c(NCCCCCCCCNc3c4ccccc4nc4cc(Cl)ccc34)c3ccccc3nc2c1` was tested, and the T/C (dose: 0.63 mg/kg/injection, schedule: Q01DX009 (ip), vehicle: other) was 112 % of control, the T/C (dose: 1.25 mg/kg/injection, schedule: Q01DX009 (ip), vehicle: other) was 108 % of control and the T/C (dose: 2.5 mg/kg/injection, schedule: Q01DX009 (ip), vehicle: other) was 110 % of control. For the same molecule, the T/C (dose: 3.75 mg/kg/injection, schedule: Q01DX009 (ip), vehicle: other) was 108 % of control, the T/C (dose: 5.0 mg/kg/injection, schedule: Q01DX009 (ip), vehicle: other) was 112 % of control and the T/C (dose: 7.5 mg/kg/injection, schedule: Q01DX009 (ip), vehicle: other) was 110 % of control. For the same molecule, the T/C (dose: 10.0 mg/kg/injection, schedule: Q01DX009 (ip), vehicle: other) was 110 % of control, the T/C (dose: 15.0 mg/kg/injection, schedule: Q01DX009 (ip), vehicle: other) was 112 % of control and the T/C (dose: 20.0 mg/kg/injection, schedule: Q01DX009 (ip), vehicle: other) was 120 % of control.
With `CCOC(=O)Cc1cn2cc(Cl)cc(Cl)c2n1` the T/C (dose: 100.0 mg/kg/injection, schedule: Q04DX003 (ip), vehicle: saline with Tween-80) was 111 % of control, the T/C (dose: 200.0 mg/kg/injection, schedule: Q04DX003 (ip), vehicle: saline with Tween-80) was 100 % of control and the T/C (dose: 400.0 mg/kg/injection, schedule: Q04DX003 (ip), vehicle: saline with Tween-80) was 100 % of control.
`C(CCSCCCCSCCCCCC1=NCCN1)CCC1=NCCN1` was tested, and the T/C [16] was 94 % of control, the T/C [17] was 95 % of control and the T/C [18] was 99 % of control.
`CCOC(=O)C1=CNc2c(C#N)cnn2C12C(=O)Oc1ccc(OC)cc12` (stereo not given) was tested, and the T/C (dose: 25.0 mg/kg/injection, schedule: Q01DX005 (ip), vehicle: Klucel (hydroxypropylcellulose) (HPC)) was 109 % of control, the T/C [16] was 105 % of control and the T/C [17] was 105 % of control. For the same molecule, the T/C [18] was 105 % of control.
With `CC(C)(CN)SCc1ccccc1` the T/C [15] was 100 % of control, the T/C [19] was 100 % of control and the T/C [11] was 100 % of control. The T/C [20] was 86 % of control, the T/C [9] was 100 % of control and the T/C [10] was 90 % of control.
For `CC(C)S(=O)c1ccc(Cl)cc1[N+](=O)[O-]` (stereo not given), the T/C [8] was 99 % of control, the T/C [4] was 99 % of control and the T/C [5] was 100 % of control.
`COc1ccc2c(c1)C1(C)CCN(C)CC(C1)C2O` (stereo not given) was tested, and the T/C [8] was 96 % of control and 104 % of control, the T/C [4] was 91 % of control and 87 % of control and the T/C [5] was 117 % of control.
With `COC(=O)C1=C(C)NC(C)=C(C(=O)OC)C1c1ccc(Cl)c([N+](=O)[O-])c1` the T/C [1] was 99 % of control, the T/C [2] was 96 % of control and the T/C [3] was 92 % of control.
In the case of `Clc1nc2n[nH]nc2nc1Cl`, the T/C (dose: 3.13 mg/kg/injection, schedule: Q04DX003 (ip), vehicle: saline) is reported as 100 % of control, the T/C (dose: 6.25 mg/kg/injection, schedule: Q04DX003 (ip), vehicle: saline) is reported as 90 % of control and the T/C (dose: 12.5 mg/kg/injection, schedule: Q04DX003 (ip), vehicle: saline) is reported as 95 % of control.
For `CCOP(=O)(O)OCc1ccccc1.[Ti]`, the T/C (dose: 50.0 mg/kg/injection, schedule: Q01DX001 (ip), vehicle: Klucel (hydroxypropylcellulose) (HPC)) was 90 % of control, the T/C [12] was 97 % of control and the T/C [13] was 93 % of control.
With `CCCC#CC(=O)OC` the T/C [8] was 97 % of control, the T/C [4] was 100 % of control and the T/C [5] was 106 % of control.
In the case of `CC(=O)N=C1CSc2ccccc2N1C`, the T/C (dose: 50.0 mg/kg/injection, schedule: Q01DX005 (ip), vehicle: saline + alcohol) is reported as 99 % of control, the T/C (dose: 100.0 mg/kg/injection, schedule: Q01DX005 (ip), vehicle: saline + alcohol) is reported as 103 % of control and the T/C (dose: 200.0 mg/kg/injection, schedule: Q01DX005 (ip), vehicle: saline + alcohol) is reported as 109 % of control.
With `CN(C)CC(O)c1cc2ccccc2c2ccccc12` (stereo not given) the T/C [14] was 106 % of control, the T/C [15] was 103 % of control and the T/C [11] was 100 % of control.
For `CNC(=O)Nc1[nH]c(=O)ncc1I`, the T/C (dose: 30.0 mg/kg/injection, schedule: Q01DX005 (ip), vehicle: Klucel (hydroxypropylcellulose) (HPC)) was 100 % of control, the T/C (dose: 60.0 mg/kg/injection, schedule: Q01DX005 (ip), vehicle: Klucel (hydroxypropylcellulose) (HPC)) was 96 % of control and the T/C (dose: 120.0 mg/kg/injection, schedule: Q01DX005 (ip), vehicle: Klucel (hydroxypropylcellulose) (HPC)) was 117 % of control.
`CC(C)CN(CC(C)C)c1nn[nH]n1` was tested, and the T/C [1] was 103 % of control, the T/C [2] was 100 % of control and the T/C [3] was 103 % of control.
With `COC(=O)C[CH2][Sn]([Cl])([Cl])[Cl]` the T/C [19] was 98 % of control, the T/C [20] was 100 % of control and the T/C [10] was 100 % of control and 96 % of control.
